Assay results published in ChEMBL document CHEMBL3991601, “The target landscape of clinical kinase drugs” (Science, 2017).
Activity calls are given as the source filed them.

Assays:
[1] = molecular target: T1, Probable ATP-dependent RNA helicase DDX6 (Homo sapiens, UniProt P26196)
T1 sequence (P26196 whole entry): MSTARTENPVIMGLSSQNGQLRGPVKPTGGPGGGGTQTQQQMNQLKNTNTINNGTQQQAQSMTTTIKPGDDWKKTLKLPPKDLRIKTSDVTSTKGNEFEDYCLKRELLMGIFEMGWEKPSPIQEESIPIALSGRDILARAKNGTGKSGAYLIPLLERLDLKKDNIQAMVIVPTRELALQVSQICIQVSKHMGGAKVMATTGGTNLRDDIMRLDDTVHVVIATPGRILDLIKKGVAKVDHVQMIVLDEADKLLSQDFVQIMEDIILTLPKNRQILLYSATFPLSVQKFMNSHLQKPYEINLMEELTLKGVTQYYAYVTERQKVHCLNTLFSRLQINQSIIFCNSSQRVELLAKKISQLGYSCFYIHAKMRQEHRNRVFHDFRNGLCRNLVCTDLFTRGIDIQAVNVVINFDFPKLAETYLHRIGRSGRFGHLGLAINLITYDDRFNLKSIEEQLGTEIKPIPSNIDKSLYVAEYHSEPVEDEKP

[2] = molecular target: Bone morphogenetic protein receptor type-1A (Homo sapiens, UniProt P36894)
[3] = molecular target: Tyrosine-protein kinase JAK1 (Homo sapiens, UniProt P23458)
[4] = molecular target: T2, Delta(24)-sterol reductase (Homo sapiens, UniProt Q15392)
T2 sequence (Q15392 whole entry): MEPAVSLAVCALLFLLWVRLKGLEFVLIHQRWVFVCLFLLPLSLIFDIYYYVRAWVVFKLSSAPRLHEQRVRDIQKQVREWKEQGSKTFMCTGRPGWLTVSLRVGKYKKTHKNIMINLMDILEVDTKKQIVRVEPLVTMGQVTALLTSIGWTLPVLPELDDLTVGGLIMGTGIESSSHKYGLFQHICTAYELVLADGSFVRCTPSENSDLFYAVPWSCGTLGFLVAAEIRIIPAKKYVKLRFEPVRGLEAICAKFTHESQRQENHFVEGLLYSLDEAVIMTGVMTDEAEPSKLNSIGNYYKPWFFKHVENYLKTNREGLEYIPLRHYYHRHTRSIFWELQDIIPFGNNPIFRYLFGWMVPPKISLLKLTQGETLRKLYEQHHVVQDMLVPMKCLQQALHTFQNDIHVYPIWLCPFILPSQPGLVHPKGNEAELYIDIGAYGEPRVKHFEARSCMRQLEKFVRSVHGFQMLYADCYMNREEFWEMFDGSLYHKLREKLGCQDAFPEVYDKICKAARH

[5] = molecular target: T3, Uncharacterized protein FLJ45252 (Homo sapiens, UniProt Q6ZSR9); conditions: read-out: Kd apparent; k-562, colo 205, sk-n-be(2) and mv-4-11
T3 sequence (Q6ZSR9 whole entry): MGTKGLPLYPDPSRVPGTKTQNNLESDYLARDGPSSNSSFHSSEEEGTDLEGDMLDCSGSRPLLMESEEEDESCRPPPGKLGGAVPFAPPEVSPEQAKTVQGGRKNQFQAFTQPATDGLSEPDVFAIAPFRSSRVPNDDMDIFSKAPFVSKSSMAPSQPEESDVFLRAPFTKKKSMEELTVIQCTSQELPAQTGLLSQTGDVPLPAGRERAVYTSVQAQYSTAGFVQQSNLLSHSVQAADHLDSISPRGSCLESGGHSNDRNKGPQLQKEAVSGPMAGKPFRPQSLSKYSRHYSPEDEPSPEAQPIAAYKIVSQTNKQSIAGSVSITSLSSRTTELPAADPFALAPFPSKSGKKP

Wee1-like protein kinase = Wee1-like protein kinase (Homo sapiens, UniProt P30291)
TGF-beta receptor type-1 = molecular target: T4, TGF-beta receptor type-1 (Homo sapiens, UniProt P36897)
T4 sequence (P36897 whole entry): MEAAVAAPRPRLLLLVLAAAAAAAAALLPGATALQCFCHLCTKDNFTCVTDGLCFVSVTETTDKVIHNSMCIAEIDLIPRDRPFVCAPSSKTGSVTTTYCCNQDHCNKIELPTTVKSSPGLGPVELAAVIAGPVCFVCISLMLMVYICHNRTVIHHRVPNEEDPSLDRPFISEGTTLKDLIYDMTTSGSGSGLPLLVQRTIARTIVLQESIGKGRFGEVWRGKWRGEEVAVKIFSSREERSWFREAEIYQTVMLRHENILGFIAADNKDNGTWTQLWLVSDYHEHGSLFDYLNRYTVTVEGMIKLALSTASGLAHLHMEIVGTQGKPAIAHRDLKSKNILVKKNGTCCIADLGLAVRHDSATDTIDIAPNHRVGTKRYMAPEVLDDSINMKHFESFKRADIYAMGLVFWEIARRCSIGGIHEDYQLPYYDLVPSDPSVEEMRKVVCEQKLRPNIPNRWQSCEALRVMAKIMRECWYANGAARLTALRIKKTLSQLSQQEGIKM

[6] = molecular target: T5, DNA replication licensing factor MCM4 (Homo sapiens, UniProt P33991)
T5 sequence (P33991 whole entry): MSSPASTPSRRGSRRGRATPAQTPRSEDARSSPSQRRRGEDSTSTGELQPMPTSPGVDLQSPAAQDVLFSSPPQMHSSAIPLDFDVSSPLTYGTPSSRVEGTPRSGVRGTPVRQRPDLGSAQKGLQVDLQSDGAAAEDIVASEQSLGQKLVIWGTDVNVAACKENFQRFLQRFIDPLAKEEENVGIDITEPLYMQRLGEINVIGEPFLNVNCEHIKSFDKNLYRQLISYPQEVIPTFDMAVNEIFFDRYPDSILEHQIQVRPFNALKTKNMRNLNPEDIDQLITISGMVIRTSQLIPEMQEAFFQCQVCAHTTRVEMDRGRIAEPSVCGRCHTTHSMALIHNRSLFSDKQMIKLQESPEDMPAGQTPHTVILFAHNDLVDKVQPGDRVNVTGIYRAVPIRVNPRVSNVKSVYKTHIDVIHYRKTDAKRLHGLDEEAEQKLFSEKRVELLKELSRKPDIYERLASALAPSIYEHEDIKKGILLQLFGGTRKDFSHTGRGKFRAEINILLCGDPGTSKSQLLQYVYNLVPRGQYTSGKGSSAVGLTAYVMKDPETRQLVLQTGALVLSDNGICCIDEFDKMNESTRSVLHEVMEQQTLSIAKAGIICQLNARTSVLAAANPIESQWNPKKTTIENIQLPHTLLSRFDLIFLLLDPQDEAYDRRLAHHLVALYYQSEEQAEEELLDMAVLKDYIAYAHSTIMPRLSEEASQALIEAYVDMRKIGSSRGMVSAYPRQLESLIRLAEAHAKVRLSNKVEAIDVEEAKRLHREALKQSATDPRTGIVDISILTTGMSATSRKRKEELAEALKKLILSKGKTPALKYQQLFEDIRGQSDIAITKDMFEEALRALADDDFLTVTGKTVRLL
Also: in the data inactive means no Kd found up to 30 µM.

Bone morphogenetic protein receptor type-1A, sequence (P36894 whole entry): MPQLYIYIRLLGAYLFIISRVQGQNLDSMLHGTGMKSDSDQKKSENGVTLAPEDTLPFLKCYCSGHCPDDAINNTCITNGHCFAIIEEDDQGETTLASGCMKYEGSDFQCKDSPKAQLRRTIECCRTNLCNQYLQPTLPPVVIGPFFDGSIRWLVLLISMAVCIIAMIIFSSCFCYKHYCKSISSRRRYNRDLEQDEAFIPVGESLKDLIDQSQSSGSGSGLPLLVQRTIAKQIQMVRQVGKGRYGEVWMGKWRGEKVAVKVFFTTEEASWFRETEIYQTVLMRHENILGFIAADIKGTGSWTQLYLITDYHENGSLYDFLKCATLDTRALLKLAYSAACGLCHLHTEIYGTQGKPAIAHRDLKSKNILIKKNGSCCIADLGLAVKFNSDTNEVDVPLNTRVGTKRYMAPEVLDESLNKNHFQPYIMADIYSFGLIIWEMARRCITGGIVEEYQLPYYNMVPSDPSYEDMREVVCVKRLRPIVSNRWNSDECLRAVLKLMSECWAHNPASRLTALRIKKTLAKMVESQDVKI
Tyrosine-protein kinase JAK1, sequence (P23458 whole entry): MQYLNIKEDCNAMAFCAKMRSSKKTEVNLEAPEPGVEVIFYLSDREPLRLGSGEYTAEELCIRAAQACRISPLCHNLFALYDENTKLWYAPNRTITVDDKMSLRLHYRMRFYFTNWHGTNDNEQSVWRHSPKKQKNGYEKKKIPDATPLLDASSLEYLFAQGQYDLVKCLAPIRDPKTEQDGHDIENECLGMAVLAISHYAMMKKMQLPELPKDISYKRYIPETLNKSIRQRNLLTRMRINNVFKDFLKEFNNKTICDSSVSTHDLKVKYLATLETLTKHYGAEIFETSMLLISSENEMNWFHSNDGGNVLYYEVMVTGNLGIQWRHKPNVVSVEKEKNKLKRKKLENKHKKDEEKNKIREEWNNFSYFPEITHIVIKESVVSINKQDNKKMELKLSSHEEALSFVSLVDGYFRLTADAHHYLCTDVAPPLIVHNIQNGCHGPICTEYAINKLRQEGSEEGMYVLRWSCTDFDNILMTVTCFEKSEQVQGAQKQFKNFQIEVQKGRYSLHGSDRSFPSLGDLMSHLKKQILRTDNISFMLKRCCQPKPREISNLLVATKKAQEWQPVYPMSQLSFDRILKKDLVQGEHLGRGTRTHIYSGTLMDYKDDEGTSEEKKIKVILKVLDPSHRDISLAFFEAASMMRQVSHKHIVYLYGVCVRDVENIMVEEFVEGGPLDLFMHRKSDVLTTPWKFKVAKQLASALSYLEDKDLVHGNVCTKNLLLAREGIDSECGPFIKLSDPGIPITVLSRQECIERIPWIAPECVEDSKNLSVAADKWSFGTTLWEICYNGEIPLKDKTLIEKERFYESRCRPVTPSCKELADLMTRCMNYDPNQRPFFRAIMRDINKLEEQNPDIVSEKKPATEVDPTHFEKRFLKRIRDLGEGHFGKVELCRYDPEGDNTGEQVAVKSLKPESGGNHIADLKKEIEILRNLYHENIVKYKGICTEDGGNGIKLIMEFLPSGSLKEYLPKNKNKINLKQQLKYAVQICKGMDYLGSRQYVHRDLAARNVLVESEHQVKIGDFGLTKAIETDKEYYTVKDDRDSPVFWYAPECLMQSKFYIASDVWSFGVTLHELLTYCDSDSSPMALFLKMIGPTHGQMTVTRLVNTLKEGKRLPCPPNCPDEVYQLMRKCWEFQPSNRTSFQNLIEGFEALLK
Wee1-like protein kinase, sequence (P30291 whole entry): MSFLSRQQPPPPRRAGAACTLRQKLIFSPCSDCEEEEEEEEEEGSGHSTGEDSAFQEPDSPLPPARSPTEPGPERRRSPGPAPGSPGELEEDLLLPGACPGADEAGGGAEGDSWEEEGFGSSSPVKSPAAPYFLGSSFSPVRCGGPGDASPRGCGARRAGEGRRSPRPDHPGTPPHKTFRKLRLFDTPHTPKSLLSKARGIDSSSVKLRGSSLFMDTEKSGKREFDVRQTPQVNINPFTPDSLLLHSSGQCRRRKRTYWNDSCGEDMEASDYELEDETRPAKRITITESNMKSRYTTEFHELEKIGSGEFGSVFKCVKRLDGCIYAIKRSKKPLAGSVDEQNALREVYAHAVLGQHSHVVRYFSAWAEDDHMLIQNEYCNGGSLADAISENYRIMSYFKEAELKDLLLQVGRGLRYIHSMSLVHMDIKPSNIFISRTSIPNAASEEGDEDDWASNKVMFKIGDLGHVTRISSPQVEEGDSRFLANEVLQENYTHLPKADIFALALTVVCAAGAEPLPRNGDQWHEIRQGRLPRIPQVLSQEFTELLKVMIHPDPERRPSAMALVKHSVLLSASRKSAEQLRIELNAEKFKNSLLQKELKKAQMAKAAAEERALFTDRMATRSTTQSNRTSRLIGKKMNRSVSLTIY

Kd [1] | Kd [2] | Kd [3] | Kd [4] | Kd [5] | Kd (Wee1-like protein kinase) | Kd (TGF-beta receptor type-1) | Kd [6] | SMILES
> 30 µM (inactive) | 0.34 µM | > 30 µM (inactive) | > 30 µM (inactive) | 0.106 µM (active) | > 30 µM (inactive) | > 30 µM (inactive) | > 30 µM (inactive) | C[C@@H](N)c1ccc(C(=O)Nc2ccnc3[nH]ccc23)cc1 [Y-39983]
> 30 µM (inactive) | > 30 µM (inactive) | 2.01 µM (active) | > 30 µM (inactive) | > 30 µM (inactive) | > 30 µM (inactive) | > 30 µM (inactive) | > 30 µM (inactive) | CN1C/C=C/CCOc2cccc(c2)-c2ccnc(n2)Nc2cccc(c2)C1 [ZOTIRACICLIB]

SMILES | Kd [1] | Kd [2] | Kd [3] | Kd [4] | Kd [5] | Kd (Wee1-like protein kinase) | Kd (TGF-beta receptor type-1) | Kd [6]
Cc1cc(Nc2ncnc3ccc(NC4=NC(C)(C)CO4)cc23)ccc1Oc1ccn2ncnc2c1 [TUCATINIB] | > 30 µM (inactive) | > 30 µM (inactive) | > 30 µM (inactive) | > 30 µM (inactive) | > 30 µM (inactive) | > 30 µM (inactive) | > 30 µM (inactive) | > 30 µM (inactive)
